# Test results: PubChem BioAssay AID2060498 (Molecular Pharmacology Branch, DTP, NCI, 2025)
# System: 171881-019-R-J1-PDC tumor spheroids, viability
# Assay: Anticancer human tumor 171881-019-R-J1-PDC patient-derived invasive breast carcinoma cell line growth inhibition [GQUAD]
# Settings: spheroids with HUVEC and MSC; for IC50: curve of first compound; for viability, T/C: stronger effect = lower value
# Procedure, shortened: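 Multi-cell-type spheroids of tumor cells with HUVEC and mesenchymal stem cells, treated with drug combinations. Concentrations descend in half-log steps from near clinical Cmax, or from 10 microM where Cmax is unknown; viability read-out.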
# [1] = second compound 0.0316 µM, first compound 0.0316 µM
# [2] = second compound 0.0316 µM, first compound 0.1 µM
# [3] = second compound 0.0316 µM, first compound 0.316 µM
# [4] = second compound 0.0316 µM, first compound 1 µM
# [5] = second compound 0.0316 µM, first compound 3.16 µM
# [6] = second compound 0.0316 µM, first compound 10 µM
# [7] = second compound 0.1 µM, first compound 0.0316 µM
# [8] = second compound 0.1 µM, first compound 0.1 µM
# [9] = second compound 0.1 µM, first compound 0.316 µM
# [10] = second compound 0.1 µM, first compound 1 µM
# [11] = second compound 0.1 µM, first compound 3.16 µM
# [12] = second compound 0.1 µM, first compound 10 µM
# [13] = second compound 0.316 µM, first compound 0.0316 µM
# [14] = second compound 0.316 µM, first compound 0.1 µM
# [15] = second compound 0.316 µM, first compound 0.316 µM
# [16] = second compound 0.316 µM, first compound 1 µM
# [17] = second compound 0.316 µM, first compound 3.16 µM
# [18] = second compound 0.316 µM, first compound 10 µM
# [19] = second compound 1 µM, first compound 0.0316 µM
# [20] = second compound 1 µM, first compound 0.1 µM
# [21] = second compound 1 µM, first compound 0.316 µM
# [22] = second compound 1 µM, first compound 1 µM
# [23] = second compound 1 µM, first compound 3.16 µM
# [24] = second compound 1 µM, first compound 10 µM
# [25] = second compound 3.16 µM, first compound 0.0316 µM
# [26] = second compound 3.16 µM, first compound 0.1 µM
# [27] = second compound 3.16 µM, first compound 0.316 µM
# [28] = second compound 3.16 µM, first compound 1 µM
# [29] = second compound 3.16 µM, first compound 3.16 µM
# [30] = second compound 3.16 µM, first compound 10 µM
# [31] = second compound 10 µM, first compound 0.0316 µM
# [32] = second compound 10 µM, first compound 0.1 µM
# [33] = second compound 10 µM, first compound 0.316 µM
# [34] = second compound 10 µM, first compound 1 µM
# [35] = second compound 10 µM, first compound 3.16 µM
# [36] = second compound 10 µM, first compound 10 µM
# 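Also: spheroids exposed to compounds for 7 days.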
# 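For viability, T/C in this document: 100% = DMSO vehicle control viability.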
smiles,measurement,setting,value
C=CC(=O)N1CCN(c2nc(=O)n(-c3c(C)ccnc3C(C)C)c3nc(-c4c(O)cccc4F)c(F)cc23)C(C)C1 (centres undefined) + Cc1cnc(CNC(=O)c2c(=O)c3ccc(N4CCCN(C)CC4)nc3n3c2sc2ccccc23)cn1,IC50,second compound 0.0316 µM,> 10000 nM
same,IC50,second compound 0.1 µM,> 10000 nM
same,IC50,second compound 0.316 µM,> 10000 nM
same,IC50,second compound 1 µM,> 10000 nM
same,IC50,second compound 3.16 µM,> 10000 nM
same,IC50,second compound 10 µM,> 10000 nM
same,"viability, T/C",[1],113%
same,"viability, T/C",[2],92.9%
same,"viability, T/C",[3],100%
same,"viability, T/C",[4],103%
same,"viability, T/C",[5],87.2%
same,"viability, T/C",[6],50.9%
same,"viability, T/C",[7],88.3%
same,"viability, T/C",[8],90.8%
same,"viability, T/C",[9],78.4%
same,"viability, T/C",[10],93.2%
same,"viability, T/C",[11],81.6%
same,"viability, T/C",[12],55.8%
same,"viability, T/C",[13],79.2%
same,"viability, T/C",[14],80.4%
same,"viability, T/C",[15],80.9%
same,"viability, T/C",[16],82.2%
same,"viability, T/C",[17],82.6%
same,"viability, T/C",[18],63.4%
same,"viability, T/C",[19],73.4%
same,"viability, T/C",[20],63.2%
same,"viability, T/C",[21],77.7%
same,"viability, T/C",[22],78.1%
same,"viability, T/C",[23],81.8%
same,"viability, T/C",[24],66.5%
same,"viability, T/C",[25],70.6%
same,"viability, T/C",[26],67.5%
same,"viability, T/C",[27],73.2%
same,"viability, T/C",[28],66.3%
same,"viability, T/C",[29],83.3%
same,"viability, T/C",[30],68.9%
same,"viability, T/C",[31],61.2%
same,"viability, T/C",[32],65.1%
same,"viability, T/C",[33],65.7%
same,"viability, T/C",[34],74.5%
same,"viability, T/C",[35],81.7%
same,"viability, T/C",[36],68%
COc1cccc2c1C(=O)c1c(O)c3c(c(O)c1C2=O)CC(O)(C(=O)CO)CC3OC1CC(N)C(O)C(C)O1 (centres undefined) + Cc1cnc(CNC(=O)c2c(=O)c3ccc(N4CCCN(C)CC4)nc3n3c2sc2ccccc23)cn1,IC50,second compound 0.0316 µM,153 nM
same,IC50,second compound 0.1 µM,159 nM
same,IC50,second compound 0.316 µM,169 nM
same,IC50,second compound 1 µM,155 nM
same,IC50,second compound 3.16 µM,139 nM
same,IC50,second compound 10 µM,138 nM
same,"viability, T/C",[1],70.5%
same,"viability, T/C",[2],54.8%
same,"viability, T/C",[3],39%
same,"viability, T/C",[4],13.5%
same,"viability, T/C",[5],0.14%
same,"viability, T/C",[6],0.9%
same,"viability, T/C",[7],70.2%
same,"viability, T/C",[8],57.4%
same,"viability, T/C",[9],37.8%
same,"viability, T/C",[10],13.7%
same,"viability, T/C",[11],0.14%
same,"viability, T/C",[12],0.43%
same,"viability, T/C",[13],62.9%
same,"viability, T/C",[14],59.9%
same,"viability, T/C",[15],38.7%
same,"viability, T/C",[16],11.7%
same,"viability, T/C",[17],0.32%
same,"viability, T/C",[18],0.4%
same,"viability, T/C",[19],61.8%
same,"viability, T/C",[20],53.2%
same,"viability, T/C",[21],41.2%
same,"viability, T/C",[22],11.4%
same,"viability, T/C",[23],0.12%
same,"viability, T/C",[24],0.16%
same,"viability, T/C",[25],59.1%
same,"viability, T/C",[26],52.5%
same,"viability, T/C",[27],39.3%
same,"viability, T/C",[28],10.6%
same,"viability, T/C",[29],0.2%
same,"viability, T/C",[30],0.14%
same,"viability, T/C",[31],59.9%
same,"viability, T/C",[32],55.9%
same,"viability, T/C",[33],35.3%
same,"viability, T/C",[34],9.6%
same,"viability, T/C",[35],0.2%
same,"viability, T/C",[36],0.69%
